{"source": "paper PMC11002876", "about": "“KcsA-Kv1.x chimeras with complete ligand-binding sites provide improved predictivity for screening selective Kv1.x blockers” (The Journal of Biological Chemistry, 2024)", "key": {"[1]": {"target": "T1, KcsA-Kv1.3 T-only chimera (Streptomyces lividans, UniProt P0A334, A54D/A57S/G53D/G56T/I60S/L59F/Q58G/R52A/R64D/T61S/Y62I)", "T1 construct": "made in house; host or cells: E. coli XL1-Blue (pQE30)", "T1 sequence (P0A334 1-160 R52A/G53D/A54D/G56T/A57S/Q58G/L59F/I60S/T61S/Y62I/R64D)": "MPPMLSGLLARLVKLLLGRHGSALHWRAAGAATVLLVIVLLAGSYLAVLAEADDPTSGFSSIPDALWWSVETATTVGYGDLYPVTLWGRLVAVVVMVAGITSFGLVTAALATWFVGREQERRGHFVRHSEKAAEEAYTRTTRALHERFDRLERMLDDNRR", "test": "Phage-binding competition assay, KcsA-Kv1.3 T-only", "set-up": "species or system human Kv1.3 turret in Streptomyces lividans KcsA", "protocol": "(§1) Phage stock solutions were diluted to working concentration with phage resuspension buffer supplemented with 2 mM DDM. For protein immobilization, the following amounts were used in a final volume of 50 μl/well: wt KcsA, 0.1 μg; KcsA-Kv1.1 T-only, 0.005 μg; KcsA-Kv1.1 T+F, 0.02 μg; KcsA-Kv1.2 T-only, 0.01 μg; KcsA-Kv1.2 T+F, 0.1 μg; KcsA-Kv1.3 T-only, 0.01 μg; and KcsA-Kv1.3 T+F, 0.1 μg. Protein samples were diluted in 50 μl of storage buffer (20 mM Tris pH8.0, 300 mM KCl, 2 mM DDM) and were added to the designated wells of a Pierce Clear, 96-Well Nickel Coated Plate (15442, Thermo Fisher Scientific), then incubated for 1 h at room temperature on a horizontal shaker at 130 rpm. The plate was blocked for 1 h at room temperature with 180 μl/well TBS-BSA supplemented with 1 mM DDM. Following blocking, the wells were washed 4× with washing buffer (300 μl TBS-Tween, 0.1% v/v) using a Wellwash Versa microplate washer (Thermo Fisher Scientific); then 50 μl phage solution (in TBS-BSA-Tween, 0.1% v/v, 2 mM DDM) at determined phage concentration was added to the wells and incubated for 1 h at room temperature on a horizontal shaker. The plate was washed 4× with washing buffer, then 50 μl anti-M13 IgG HRP (MA5-36125, Invitrogen) diluted to 1:2500 in TBS-Tween (0.1% v/v) was added to the wells and incubated for 1 h at room temperature. The plate was washed again 4× with 300 μl/well washing buffer. Finally, 50 μl/well 1-Step Ultra TMB-ELISA solution (34028, Thermo Fisher Scientific) was added to the wells, and the developing signal was stopped with 50 μl 1M HCl after 5 to 10 min. The light absorbance signal was read at 450 nm with Byonoy absorbance 96 plate reader (Byonoy GmbH).\n(§2) For protein immobilization, the following amounts were used in a final volume of 50 μl/well: KcsA-Kv1.1 T-only, 0.005 μg; KcsA-Kv1.1 T+F, 0.01 μg; KcsA-Kv1.2 T-only, 0.025 μg; KcsA-Kv1.2 T+F, 0.0125 μg; KcsA-Kv1.3 T-only, 0.01 μg; and KcsA-Kv1.3 T+F, 0.1 μg. Protein samples were diluted in storage buffer. Binding of given concentrations of relevant ligand-displaying phages quantified by light absorbance ([…]) were investigated in a similar manner as in phage ELISA-binding assay, while different concentrations of competing toxin test substances were applied simultaneously. The results were converted to percent inhibitions (percent displacement) of the indicator phage binding, and relative affinities of the tested toxins were assessed by plotting percent displacements against log concentrations and determining half maximal inhibitory concentrations (IC50) by sigmoidal curve fitting using “Sigmoidal dose-response (variable slope) with least squares method” algorithm in GraphPad Prism 8 using the following equation: Y=Bottom+Top−Bottom/1+10^(LogEC50−×)⋅HillSlope"}, "[2]": {"target": "T2, KcsA-Kv1.2 T-only chimera (Streptomyces lividans, UniProt P0A334, A54E/A57S/G53D/G56E/I60P/L59F/P55R/R52A/R64D/T61S/Y62I)", "T2 sequence (P0A334 1-160 R52A/G53D/A54E/P55R/G56E/A57S/L59F/I60P/T61S/Y62I/R64D)": "T1 sequence (P0A334 1-160 R52A/G53D/A54D/G56T/A57S/Q58G/L59F/I60S/T61S/Y62I/R64D) with D54E, P55R, T56E, G58Q, S60P", "test": "Phage-binding competition assay, KcsA-Kv1.2 T-only", "set-up": "species or system human Kv1.2 turret in Streptomyces lividans KcsA", "settings": "displacement of HgTx1-phage; KcsA-Kv1.2 T-only 0.025 μg/well on nickel-coated plate; mean ± SD (n = 3); NQ = not quantifiable; read-out: IC50, T-only chimera (Kv1.2)", "protocol": "as §1, §2"}, "[3]": {"target": "T3, KcsA-Kv1.2 T-only chimera (Streptomyces lividans, UniProt P0A334, R52A/G53D/A54E/P55R/G56E/A57S/L59F/I60P/T61S/Y62I/R64D)", "T3 sequence (P0A334 1-160 R52A/G53D/A54E/P55R/G56E/A57S/L59F/I60P/T61S/Y62I/R64D)": "T1 sequence (P0A334 1-160 R52A/G53D/A54D/G56T/A57S/Q58G/L59F/I60S/T61S/Y62I/R64D) with D54E, P55R, T56E, G58Q, S60P", "test": "Phage-binding competition assay, KcsA-Kv1.2 T-only", "set-up": "species or system human Kv1.2 turret in Streptomyces lividans KcsA", "settings": "for binding to KcsA-Kv1.2 T-only, in words: HgTx1-phage competition, Fig. 7E (ligand-binding pattern)", "protocol": "as §1, §2"}, "KcsA-Kv1.2 T+F chimera [4]": {"target": "T4, KcsA-Kv1.2 T+F chimera (Streptomyces lividans, UniProt P0A334, R52A/G53D/A54E/P55R/G56E/A57S/L59F/I60P/T61S/Y62I/R64D/L81M/Y82V/V84T)", "T4 sequence (P0A334 1-160 R52A/G53D/A54E/P55R/G56E/A57S/L59F/I60P/T61S/Y62I/R64D/L81M/Y82V/V84T)": "T1 sequence (P0A334 1-160 R52A/G53D/A54D/G56T/A57S/Q58G/L59F/I60S/T61S/Y62I/R64D) with D54E, P55R, T56E, G58Q, S60P, L81M, Y82V, V84T", "test": "Phage-binding competition assay, KcsA-Kv1.2 T+F", "set-up": "species or system human Kv1.2 turret and filter in Streptomyces lividans KcsA", "settings": "rank by competition IC50 among MTX, ShK, KTX1", "protocol": "as §1, §2"}, "KcsA-Kv1.2 T+F chimera [5]": {"target": "T5, KcsA-Kv1.2 T+F chimera (Streptomyces lividans, UniProt P0A334, A54E/A57S/G53D/G56E/I60P/L59F/L81M/P55R/R52A/R64D/T61S/V84T/Y62I/Y82V)", "T5 sequence (P0A334 1-160 R52A/G53D/A54E/P55R/G56E/A57S/L59F/I60P/T61S/Y62I/R64D/L81M/Y82V/V84T)": "T1 sequence (P0A334 1-160 R52A/G53D/A54D/G56T/A57S/Q58G/L59F/I60S/T61S/Y62I/R64D) with D54E, P55R, T56E, G58Q, S60P, L81M, Y82V, V84T", "test": "Phage-binding competition assay, KcsA-Kv1.2 T+F", "set-up": "species or system human Kv1.2 turret and filter in Streptomyces lividans KcsA", "settings": "HgTx1-phage competition, KcsA-Kv1.2 T+F; value given in figure, sigmoidal fit to means of three replicates; read-out: IC50 (Fig. 7F)", "protocol": "as §1, §2"}}, "note": "Numbering of substitutions follows the chain as printed. “Also recorded” adds a separate entry of the source. Where a SMILES comes first, the peptide text is derived from it."}
{"smiles": "CC[C@H](C)[C@@H]1NC(=O)CNC(=O)[C@H](Cc2ccccc2)NC(=O)[C@H](CCC(N)=O)NC(=O)[C@H](C)NC(=O)[C@H](CCCCN)NC(=O)[C@@H]2CSSC[C@@H](C(=O)N[C@@H](Cc3ccc(O)cc3)C(=O)N3CCC[C@H]3C(=O)N[C@@H](Cc3c[nH]cn3)C(=O)O)NC(=O)[C@H](CCCCN)NC(=O)[C@@H]3CSSC[C@H](NC(=O)[C@H](CCC(N)=O)NC(=O)[C@H](CCCCN)NC(=O)[C@@H]4CCCN4C(=O)[C@H](CO)NC(=O)[C@H]([C@@H](C)O)NC(=O)[C@@H](NC(=O)[C@H](CCCCN)NC(=O)[C@@H](NC(=O)[C@H](CC(=O)O)NC(=O)[C@@H](NC(=O)[C@@H](NC(=O)[C@@H](N)[C@@H](C)O)C(C)C)[C@@H](C)CC)C(C)C)CSSC[C@H](NC(=O)[C@H](CCCCN)NC(=O)[C@H](C)NC(=O)CNC(=O)[C@H](C)NC(=O)[C@H](CCCNC(=N)N)NC1=O)C(=O)N[C@@H](CCSC)C(=O)N[C@@H](CC(N)=O)C(=O)NCC(=O)N[C@@H](CCCCN)C(=O)N3)C(=O)N[C@@H](CC(C)C)C(=O)N1CCC[C@H]1C(=O)N1CCC[C@H]1C(=O)N2", "note": "[HgTx1, Hongotoxin-1] (HELM PEPTIDE1{T.V.I.D.V.K.C.T.S.P.K.Q.C.L.P.P.C.K.A.Q.F.G.I.R.A.G.A.K.C.M.N.G.K.C.K.C.Y.P.H}$PEPTIDE1,PEPTIDE1,7:R3-29:R3|PEPTIDE1,PEPTIDE1,13:R3-34:R3|PEPTIDE1,PEPTIDE1,17:R3-36:R3$$$V2.0; N-terminus and C-terminus assumed)", "values": [{"measurement": "IC50", "setting": "[1]; HgTx1-phage competition, T-only KcsA-Kv1.3, value given in figure, sigmoidal fit to means of three replicates, read-out: IC50 (Fig. 6E)", "result": 0.671, "unit": "nM"}, {"measurement": "Rank, T-only chimera (Kv1.3)", "setting": "[1]; rank by competition IC50 among Vm24, HgTx1, KTX1", "result": 3}]}
{"smiles": "CC[C@H](C)[C@@H]1NC(=O)[C@@H]2CSSC[C@H](NC(=O)[C@H](CO)NC(=O)[C@@H](N)C(C)C)C(=O)N[C@@H]([C@@H](C)O)C(=O)NCC(=O)N[C@@H](CO)C(=O)N[C@@H](CCCCN)C(=O)N[C@@H](CC(=O)O)C(=O)N[C@@H](CSSC[C@@H](C(=O)N[C@@H](CCCCN)C(=O)N[C@H]3CSSC[C@@H](C(N)=O)NC(=O)CNC(=O)[C@H](Cc4ccc(O)cc4)NC3=O)NC(=O)[C@H](CO)NC(=O)[C@H](CCCCN)NC(=O)[C@H](CC(N)=O)NC1=O)C(=O)N[C@@H](Cc1ccc(O)cc1)C(=O)N[C@@H](C)C(=O)N1CCC[C@H]1C(=O)N[C@H]1CSSC[C@H](NC(=O)CNC(=O)[C@H]([C@@H](C)O)NC(=O)[C@H](CCC(N)=O)NC(=O)[C@H](CCCCN)NC(=O)[C@H](CCCNC(=N)N)NC1=O)C(=O)N1CCC[C@H]1C(=O)N[C@@H](CC(N)=O)C(=O)N[C@@H](C)C(=O)N[C@@H](CCCCN)C(=O)N2", "note": "[MTX, Maurotoxin] (HELM PEPTIDE1{V.S.C.T.G.S.K.D.C.Y.A.P.C.R.K.Q.T.G.C.P.N.A.K.C.I.N.K.S.C.K.C.Y.G.C.[am]}$PEPTIDE1,PEPTIDE1,3:R3-24:R3|PEPTIDE1,PEPTIDE1,9:R3-29:R3|PEPTIDE1,PEPTIDE1,13:R3-19:R3|PEPTIDE1,PEPTIDE1,31:R3-34:R3$$$V2.0; N-terminus and C-terminus assumed)", "values": [{"measurement": "IC50", "setting": "[2]", "result": "> 1000", "unit": "nM"}, {"measurement": "binding to KcsA-Kv1.2 T-only, in words", "setting": "[3]", "result": "ShK > KTX1 > MTX; also recorded: completely lost its affinity"}, {"measurement": "binding to KcsA-Kv1.2 T-only, in words", "setting": "[3]; listed as MTX1", "result": "negligible binding"}, {"measurement": "Rank, T-only chimera (Kv1.2)", "setting": "[3]; rank by competition IC50 among MTX, ShK, KTX1", "result": 3}, {"measurement": "Rank, T+F chimera (Kv1.2)", "setting": "KcsA-Kv1.2 T+F chimera [4]", "result": 1}, {"measurement": "IC50", "setting": "KcsA-Kv1.2 T+F chimera [5]", "result": 0.129, "unit": "nM"}]}
